According to patent US20240342071A1, “HEXAPEPTIDE,COSMETIC COMPOSITION OR PHARMACEUTICAL COMPOSITION CONTAINING SAME, AND USE OF HEXAPEPTIDE” (SHENZHEN WINKEY TECHNOLOGY CO., LTD, priority 2021, published 2024):

Assays:
[1] = test system: IL-6; experiment: Anti-inflammatory cell assay: IL-6 ELISA in LPS-stimulated RAW 264.7 cells; assay type: cell-based, Mouse; conditions: 100 ppm, 200 ng/mL LPS, RAW 264.7, 48 h, vs LPS alone
Protocol: (§1) Fetal bovine serum, DMEM culture medium, penicillin, streptomycin, an IL-6 ELISA kit and a TNF-α ELISA kit.
(§2) Mouse monocyte macrophages (RAW 264.7 cells).
(§3) 100 ppm of the reference peptide, 100 ppm of the peptide (5), 100 ppm of the peptide (11), and 100 ppm of the peptide (17); the peptides were dissolved with a PBS solution, respectively.
(§4) The frozen RAW 264.7 cells were cultured and passaged at a ratio of 1:2 to about the 5th generation, and the cells in better growth were selected as experiment subjects.
(§5) A cell suspension was diluted properly and inoculated on a 6-well plate at 100,000 cells/well. When the cells were about 80% confluent, an LPS-stimulated inflammation model was established. A blank control group (control), a LPS group, a dexamethasone group (DXM), and polypeptide groups were set. The blank control group was supplemented with the culture medium to 1000 μL; in the LPS group, 200 ng/mL LPS was added, and supplemented with the culture medium to 1000 μL; in the dexamethasone group, 200 ng/mL LPS and 50 ng/ml dexamethasone were added, and supplemented with the culture medium to 1000 μL; in the polypeptide groups, 200 ng/mL LPS and a polypeptide were added, and supplemented with culture medium to 1000 μL (the final test concentration of the polypeptide was 100 ppm). The above groups were further incubated in a 5% CO2 incubator at 37° C. for 48 h. The solutions were centrifuged at 3000 rpm for 15 min, in each of which a cell supernatant was collected to obtain a sample liquid. Operations were performed according to the instructions of the IL-6 and TNF-α ELISA kits.
(§6) Inflammatory factors such as TNF-α and IL-6 can cause the body's immune overresponse, leading to skin ulcers, redness and other problems. Therefore, inhibiting inflammatory factors such as TNF-α and IL-6 secreted by monocytes in the skin can achieve anti-inflammatory and repairing effects. An inflammation model was established by stimulating RAW 264.7 cells with 200 ng/mL LPS to investigate the anti-inflammatory and repairing effects of the peptides of the present invention.

[2] = test system: TNF-α; experiment: Anti-inflammatory cell assay: TNF-α ELISA in LPS-stimulated RAW 264.7 cells; assay type: cell-based, Mouse; conditions: 200 ng/mL LPS; for effect on TNF-α expression compared with the positive drug dexamethasone: 100 ppm peptide vs 50 ng/ml dexamethasone, RAW 264.7; for TNF-α expression: 100 ppm, RAW 264.7, 48 h, vs LPS alone
Protocol: as §1, §2, §3, §4, §5, §6

[3] = test system: HaCaT cells; experiment: Cell viability assay (MTT) on HaCaT cells; assay type: cell-based, Human; conditions: 72 h; for toxicity to HaCaT cells: 100 ppm, compared with the control group
Text: Phosphate-buffered saline (PBS) (Gibco), thiazolyl blue (MTT) (Sigma), dimethyl sulfoxide (DMSO) (Sigma), a high glucose culture medium (DMEM) (Gibco), and fetal bovine serum (Gibco).
Human keratinocytes (HaCaT) were purchased from the Kunming Cell Bank of China Center for Type Culture Collection under the Chinese Academy of Sciences.
The peptide Ac-Phe-Phe-Trp-Phe-His-Val-NH2 (hereinafter referred to as the reference peptide) at a test concentration of 1 ppm, 10 ppm, 50 ppm, and 100 ppm respectively; • the peptide (5) at a test concentration of 1 ppm, 10 ppm, 50 ppm, and 100 ppm, respectively; • the peptide (11) at a test concentration of 1 ppm, 10 ppm, 50 ppm, and 100 ppm, respectively; • the peptide (17) at a test concentration of 1 ppm, 10 ppm, 50 ppm, and 100 ppm, respectively. Control group: • PBS blank control.
The frozen HaCaT cells were cultured and passaged at a ratio of 1:2 to about the 5th generation, and the cells in better growth were selected as experiment subjects.
The cells were inoculated in a 96-well plate at 2000 cells/well. After the cells adhered to the wall, samples of the drug groups and the control group were added according to the multiple dilution method, supplemented with a culture medium to 200 μL, and incubated in a 5% CO2 incubator at 37° C. for 72 h.
Then 22 μL 5 mg/ml MTT was added to each well and the incubation was continued in the 5% CO2 incubator at 37° C. for 4 h. The original solution was removed and 150 μL/well DMSO was added. After 5 min, the microplate reader was used to read the reference OD values at 490 nm and 630 nm wavelengths.
The MTT assay is a method of detecting cell survival and growth. The control group is taken as a reference value. Four dosage concentrations were set from high to low for each sample, and cell viability assays were carried out on HaCaT cells. The measured OD values are directly proportional to cell viability.

| Substance | expression of IL-6 [1] | effect on TNF-α expression compared with the positive drug dexamethasone [2] | TNF-α expression [2] | toxicity to HaCaT cells [3] | proliferation effects on cells ([3]; HaCaT, 50 ppm) |
| --- | --- | --- | --- | --- | --- |
| Ac-FFWFHL-NH2 [peptide (11), Ac-Phe-Phe-Trp-Phe-His-Leu-NH2] | significantly down-regulated | equivalent to that of the positive drug dexamethasone, or having even more excellent effects than dexamethasone | significantly down-regulated | no toxicity | – |
| Ac-FFWFHV-NH2 [reference peptide, Ac-Phe-Phe-Trp-Phe-His-Val-NH2, reference compound] | significantly down-regulated | equivalent to that of the positive drug dexamethasone, or having even more excellent effects than dexamethasone | significantly down-regulated | no toxicity | significant proliferation effects |
| Ac-FFWFHG-NH2 [peptide (17), Ac-Phe-Phe-Trp-Phe-His-Gly-NH2] | significantly down-regulated | equivalent to that of the positive drug dexamethasone, or having even more excellent effects than dexamethasone | significantly down-regulated | no toxicity | – |
| Ac-FFWFKV-NH2 [peptide (5), Ac-Phe-Phe-Trp-Phe-Lys-Val-NH2] | – | – | – | no toxicity | – |
